Like-named read-outs stand apart in the source and are kept apart here.

The record followed here is publication PMC4841536, “Characterization of the Anti-HCV Activities of the New Cyclophilin Inhibitor STG-175” (PLoS ONE, 2016).

Type in all cases: cell-based
Assay [1] relates to HCV GT1b subgenomic replicon pFK-I389/NS3-3’. The assay can be described thus: Luciferase reporter replicon antiviral assay, GT1b. Conditions: Hepatitis C virus. The procedure: The anti-HCV activity of STG-175 was conducted using a panel of luciferase reporter replicon cell lines including GT1a, GT1b, GT2a, GT3a and GT4a as we described previously. The GT1a subgenomic renilla luciferase reporter replicon H77 RLucP (7) was supplied by Dr. Delaney. The GT1b subgenomic firefly luciferase reporter replicon pFK-I389/NS3-3’ [29] was supplied by Dr. Bartenschlager. The GT1B subgenomic NS3, NS5A and NS5B mutants were created via homologous recombination using the In-Fusion HD Cloning kit (Clontech) as we described previously. The GT2a genomic luciferase reporter replicon Luc-Neo-JFH-1 was generated as previously. The plasmid pFK-Luc-JFH1 was supplied from Drs. Wakita and Pietschmann and the XbaI site in the firefly luciferase gene and the NotI site in the EMCV IRES were used to take the Luciferase/Ubiquitin-NPT II (the neomycin phosphotransferase II gene) fusion cassette out of pFK389ILuc-Neo (wild-type replicon from GT1b) and inserted into the pFK-Luc-JFH1 plasmid, generating full-length Luc-Neo-JFH-1 [30]. The GT3a subgenomic firefly luciferase reporter replicon S52/SG-Feo (AI) and the GT4a subgenomic firefly luciferase reporter replicon ED43/SG-Feo [33] were supplied by Drs. Rice and Bukh. Replicons were stably expressed in Huh7.5 or Huh7.5.1 cells under G418 selection. On Day 1, cells (5,000) were plated into 96-well plates in complete DMEM containing 10% FCS. On Day 2, increasing drug concentrations were added to wells. On Day 5, 72 h post-drug addition, medium was removed and replaced with 100 μL of fresh medium. Hundred μL of the fluorogenic, cell-permeant peptide substrate glycyl-phenylalanyl-amino fluorocoumarin was added to wells as per manufacturer’s recommendation (Promega Corp, Madison, WI). The CellTiter-Fluor™ Cell Viability Assay is a non-lytic fluorescence assay, which measures the number of live cells. […] Medium was removed, cells washed and lysed in 20 μL of Cell Culture Lysis Reagent. Luciferase activity was determined using the Luciferase Assay System (Promega) in a Berthold luminometer. The alamarBlue® assay (Thermo Fischer Scientific) was used to measure CC50s for STG-175 on replicon cell lines. When cells are alive they maintain a reducing environment within the cytosol of the cell. […] Upon entering cells, resazurin is reduced to resorufin, a compound that is red in color and highly fluorescent. Viable cells continuously convert resazurin to resorufin, increasing the overall fluorescence and color of the media surrounding cells.
Fig 2 Anti-HCV activities of STG-175 among GTs. A. Replicon-containing cells (5,000) were exposed to increasing concentrations of the indicated drugs. Seventy-two hours post-drug addition, the fluorogenic, cell-permeant peptide substrate glycyl-phenylalanyl-amino fluorocoumarin was added to measure the number of live cells. […] Luciferase activity was determined using the Luciferase Assay System in a Berthold luminometer. B. A similar experiment was conducted with the GT1b replicon cell line in 0, 5, 10, 20 and 40% of human serum. Data are expressed as mean of relative light units and calculated EC50s are presented. […] C.
For orientation: In a reporter assay the amount or activity of a reporter protein is the signal.

Assay [2] has as its system HCV GT4a subgenomic replicon ED43/SG-Feo. The assay can be described thus: Luciferase reporter replicon antiviral assay, GT4a. Conditions: Hepatitis C virus. The procedure:
The anti-HCV activity of STG-175 was conducted using a panel of luciferase reporter replicon cell lines including GT1a, GT1b, GT2a, GT3a and GT4a as we described previously. The GT1a subgenomic renilla luciferase reporter replicon H77 RLucP (7) was supplied by Dr. Delaney. The GT1b subgenomic firefly luciferase reporter replicon pFK-I389/NS3-3’ [29] was supplied by Dr. Bartenschlager. The GT1B subgenomic NS3, NS5A and NS5B mutants were created via homologous recombination using the In-Fusion HD Cloning kit (Clontech) as we described previously. The GT2a genomic luciferase reporter replicon Luc-Neo-JFH-1 was generated as previously. The plasmid pFK-Luc-JFH1 was supplied from Drs. […] The CellTiter-Fluor™ Cell Viability Assay is a non-lytic fluorescence assay, which measures the number of live cells. […] Luciferase activity was determined using the Luciferase Assay System (Promega) in a Berthold luminometer. […] Viable cells continuously convert resazurin to resorufin, increasing the overall fluorescence and color of the media surrounding cells.
Fig 2 Anti-HCV activities of STG-175 among GTs. […] Luciferase activity was determined using the Luciferase Assay System in a Berthold luminometer. […] Data are expressed as mean of relative light units and calculated EC50s are presented. […]

The test system of assay [3] is NS5Ai-resistant L31V NS5A Con1 GT1b replicon. The assay can be described thus: Electroporated Con1 RNA replication in Huh7.5.1 cells (RT-qPCR), L31V NS5A. The note with it: Hepatitis C virus, Huh-7.5.1, 192 h, read-out: EC50 L31V NS5A. The source says:
The GT1b subgenomic firefly luciferase reporter replicon pFK-I389/NS3–3 was provided by R. Bartenschlager. The GT1B subgenomic NS3, NS5A and NS5B mutants were created via homologous recombination using the In-Fusion HD Cloning kit (Clontech) as we described previously. […] The in vitro transcription of wild-type and mutant Con1 RNA was accomplished using the T7 MEGAscript kit (Ambion) by following the manufacturer’s instructions. In vitro-transcribed RNAs were introduced into Huh7.5.1 cells by electroporation. Trypsinized cells were washed twice and resuspended in phosphate-buffered saline (PBS) (calcium-free and magnesium-free) at 1x 10^7 cells per ml. Ten micrograms of RNA for each mutant was mixed with 0.4 mL of cells in a 4-mm cuvette, and a Bio-Rad Gene Pulser system was used to deliver a single pulse at 0.27 kV, 100 ohms, and 960 μF. […] RNA transfection efficiency and HCV subgenomic replication were assessed by reverse transcription-quantitative PCR (RT-qPCR) and presented as genome equivalents (GE) per microgram of total RNA as described previously. We measured by RT-qPCR the replication of wild-type, STG-175-, NS5Ai-, NS3i- and NS5Bi-resistant mutants in the presence of increasing concentrations of SGT-175, daclatasvir, telaprevir, boceprevir and sofosbuvir over a period of 8 days.
Fig 5 Cross-resistance analyses. […] Data are expressed as log of GE/μg of total RNA. […]
Background: Real-time PCR tracks product formation cycle by cycle.

Broadly, the EC50 is the concentration giving half of the maximal effect. `CC=CCC(C)C(O)C1C(=O)NC(CC)C(=O)N(C)C(CSCCCCO)C(=O)N(C)C(CC(C)(C)O)C(=O)NC(C(C)C)C(=O)N(C)C(CC(C)C)C(=O)NC(C)C(=O)NC(C)C(=O)N(C)C(CC(C)C)C(=O)N(C)C(CC(C)C)C(=O)N(C)C(C(C)C)C(=O)N1C` (stereo not drawn) [STG-175]: the EC50 in assay [1] (0% human serum, read-out: EC50 GT1b in human serum) amounted to 16 nM; in assay [1] (5% human serum, read-out: EC50 GT1b in human serum), 15 nM; in assay [1] (10% human serum, read-out: EC50 GT1b in human serum), 18.8 nM; in assay [1] (20% human serum, read-out: EC50 GT1b in human serum), 22.2 nM; in assay [1] (40% human serum, read-out: EC50 GT1b in human serum), 37.2 nM; in assay [1] (72 h, 72 h post-drug addition, luciferase, read-out: EC50 GT1b), 15.1 nM. The EC50 in assay [2] (72 h, read-out: EC50 GT4a) is 15.2 nM; in assay [2] (read-out: EC50 GT4a (Fig 2D)) it was 15.2 nM; in assay [3], 15.1 nM.
